Laboratory results reported in patent US20250101062A1, “ANTIMICROBIAL PEPTIDES” (Board of Regents of the University of Nebraska, priority 2023, published 2025).
Converted amounts (≈) assume the structure as drawn. Like-named read-outs stand apart in the source and are kept apart here. Blank lines part the entries; values can stand above or below the compound they belong to. Where a SMILES comes first, the peptide text is derived from it. Where no end group is shown, it is not given here.

Tests used:
S. aureus USA300 LAC = assay: microbe, parasite or virus in culture; format: cell-based, Staphylococcus aureus; conditions: for change of MIC / activity: 10% human serum
Protocol: (§1) The following resistant bacterial clinical strains were used in this study: S. aureus USA300 LAC, S. epidermidis 1457, E. coli E423-17, P. aeruginosa E411-17, K. pneumoniae E406-17, and A. baumannii B28-16. While the S. aureus USA300 strain is methicillin-resistant, most of the Gram-negative bacteria contain extended-spectrum beta-lactamase and are resistant to beta-lactam antibiotics. Peptide activity against bacteria was tested using an established lab protocol (Mishra, et al. (2017) Acta Biomater., 49:316-328). In brief, a peptide concentration gradient with twofold dilution was made in the 96-well polystyrene microplate at 10 μL per well. Bacteria were grown to the exponential phase (i.e., optical density at 600 nm≈0.5), diluted to ˜10^5 CFU/mL in different percentages of MHB, TSB, or LB, and partitioned into the 96-well microplate at 90 μL per well. […] They were diluted with autoclaved distilled water to obtain different percentages. The microplates were incubated at 37° C. overnight and read on a ChroMate™ 4300 microplate reader at 600 nm (GMI, Ramsey, MN). The peptide concentration in the wells without bacterial growth is the MIC. As is the convention, MIC values were represented as ranges.
(§2) For pH effects on peptide activity, the pH of the medium was adjusted to a targeted pH for the autoclave and then remeasured at room temperature. For salt and serum effects on peptide activity, stock NaCl solution or human serum was added to the media.
(§3) Peptide activity against bacteria were tested using the CLSI standard procedure with minor modifications (Clinical and Laboratory Standards Institute (2018) Performance standards for antimicrobial susceptibility testing, 9th ed.; Mishra, et al. (2019) Proc. Natl. Acad. Sci., 116(27):13517-13522). In brief, a peptide concentration gradient with twofold dilution was made in the 96-well polystyrene microplate at 10 μL per well. Bacteria were grown to the exponential phase (i.e., optical density at 600 nm≈0.5), diluted to ˜10^5 CFU/mL in MHB, and partitioned into the 96-well microplate at 90 μL per well. The microplates were incubated at 37° C. overnight and read on a ChroMate® 4300 Microplate Reader at 600 nm (GMI, Ramsey, MN). The peptide concentration in the wells without bacterial growth is the minimal inhibitory concentration (MIC). As the convention, MIC values were represented as ranges.
(§4) For pH effects on peptide activity, the pH of the medium was adjusted to a targeted pH for autoclave and then remeasured at room temperature. For salt and serum effects on peptide activity, stock NaCl solution or human serum were added to the media.

[1] = Effect of MHB dilution on antibacterial activity of a panel of antibiotics; format: cell-based; conditions: MHB from 100 to 12.5%
Protocol: FIGS. 2A-2D show biofilm disruption activity of human LL-37 (FIGS. 2A and 2B) and 17BIPHE2 (FIGS. 2C and 2D) against the 24 hour preformed biofilms of S. aureus USA300 LAC in different MHB media: 12.5% MHB (FIGS. 2A and 2C) and 100% MHB (FIGS. 2B and 2D). FIGS. 2E-2H show the treatment outcome of LL-37 (FIGS. 2E and 2F) and 17BIPHE2 (FIGS. 2G and 2H) against the 24-hour preformed biofilms of E. coli E423-17 in different MHB media: 12.5% MHB (FIGS. 2E and 2G) and 100% MHB (FIGS. 2F and 2H). […] Growth curves of S. aureus USA 300 LAC (FIGS. 2J-2K) and P. aeruginosa 152 (FIGS. 2L-2M) in 12.5%, 25%, 50% and 100% MHB or TSB medium (curves from bottom to top).
The effects of MHB dilution on the antimicrobial activity of a panel of antibiotics was also compared (FIG. 2I).

E. coli E423-17 = format: cell-based, Escherichia coli
Protocol: as §1, §2, §3, §4

S. epidermidis 1457 = assay: microbe, parasite or virus in culture; format: cell-based, Staphylococcus epidermidis; conditions: read-out: Antimicrobial activity (MIC) S. epidermidis 1457
Protocol: as §1, §3

A. baumannii B28-16 = format: cell-based, Acinetobacter baumannii; conditions: B28-16
Protocol: as §1, §3

P. aeruginosa E411-17 = assay: microbe, parasite or virus in culture; format: cell-based, Pseudomonas aeruginosa; conditions: for MIC: read-out: Antimicrobial activity (MIC)
Protocol: as §1, §2, §3, §4

E. coli = conditions: data from the antimicrobial peptide database; cited from earlier work
K. pneumoniae E406-17 = format: cell-based, Klebsiella pneumoniae
Protocol: as §1, §3

[2] = Staphylococcus aureus, MRSA / USA300, MRSA in MHB, 20% serum, read-out: Antimicrobial activity (MIC)
[3] = Staphylococcus aureus, MRSA / USA300, pH 6.3, MRSA in MHB, pH 6.3, read-out: Antimicrobial activity (MIC)
[4] = Staphylococcus aureus, MRSA / USA300, pH 7.2, MRSA in MHB, pH 7.2, read-out: Antimicrobial activity (MIC)
[5] = USA300, read-out: Antimicrobial activity (MIC)

Compound: NCC[C@H](O)C(=O)N[C@@H]1C[C@H](N)[C@@H](O[C@H]2O[C@H](CN)[C@@H](O)[C@H](O)[C@H]2O)[C@H](O)[C@H]1O[C@H]1O[C@H](CO)[C@@H](O)[C@H](N)[C@H]1O [Amikacin]
change of MIC / activity (S. aureus USA300 LAC; MRSA in MHB): fourfold
MIC (S. aureus USA300 LAC; [2]): 32 to 64 µM (≈ 18.7 to 37.5 µg/mL)
MIC (S. aureus USA300 LAC; [3]): 32 µM (≈ 18.7 µg/mL)
MIC (S. aureus USA300 LAC; [4]): 8 µM (≈ 4.68 µg/mL)
change in MIC with dilution of MHB [1]: small changes in MIC values

MIC (S. aureus USA300 LAC; USA300, pH 6.21, read-out: Antimicrobial activity (MIC)): 8 µM (≈ 9.55 µg/mL)
MIC (S. aureus USA300 LAC; USA300, pH 7.22, read-out: Antimicrobial activity (MIC)): 4 µM (≈ 4.77 µg/mL)
MIC (S. aureus USA300 LAC; USA300, pH 8.13, read-out: Antimicrobial activity (MIC)): 2 µM (≈ 2.39 µg/mL)
MIC (S. aureus USA300 LAC; [5]): 4 µM (≈ 4.77 µg/mL)
MIC (S. aureus USA300 LAC; USA300, read-out: Antimicrobial activity (MIC) S. aureus USA300): 4 µM (≈ 4.77 µg/mL)
Antimicrobial activity (MIC) E. coli E423-17 (E. coli E423-17; E423-17): 8 µM
MIC (S. epidermidis 1457): 4 µM (≈ 4.77 µg/mL)
Antimicrobial activity (MIC) A. baumannii B28-16 (A. baumannii B28-16): 4 µM
Antimicrobial activity (MIC) P. aeruginosa E411-17 (P. aeruginosa E411-17; E411-17): 8 µM
MIC (P. aeruginosa E411-17; E411-17, pH 6.21): 16 µM (≈ 19.1 µg/mL)
Antimicrobial activity (MIC) (P. aeruginosa E411-17; E411-17, pH 7.22): 4 to 8 µM
MIC (P. aeruginosa E411-17; E411-17, pH 8.13): 4 µM (≈ 4.77 µg/mL)
MIC (P. aeruginosa E411-17; E411-17): 16 µM (≈ 19.1 µg/mL)
Compound: CCCCCCCCCC(=O)N[C@H](CCCCN)C(=O)N[C@H](CCCNC(=N)N)C(=O)N[C@@H](C(=O)N[C@@H](C(=O)N[C@H](CCC(N)=O)C(=O)N[C@H](CCCNC(=N)N)C(=O)N[C@@H](C(=O)N[C@H](CCCCN)C(N)=O)[C@H](C)CC)C(C)C)[C@H](C)CC [C10-KR8, reference compound] (HELM PEPTIDE1{[CCCCCCCCCC(=O)[*:2]].[dK].[dR].[dI].[dV].[dQ].[dR].[dI].[dK].[am]}$$$$V2.0; N-terminus and C-terminus assumed)

Compound: CC(=O)NC[C@H]1CN(c2ccc(N3CCOCC3)c(F)c2)C(=O)O1 [Linezolid]
MIC (S. aureus USA300 LAC; [2]): 8 to 16 µM (≈ 2.7 to 5.4 µg/mL)
MIC (S. aureus USA300 LAC; Staphylococcus aureus, MRSA / USA300, MRSA in MHB, NaCl (150 mM), read-out: Antimicrobial activity (MIC)): 8 µM (≈ 2.7 µg/mL)
change in MIC with dilution of MHB [1]: essentially no changes

Compound: C/C(=C\C(=O)OCCCCCCCCC(=O)O)C[C@@H]1OC[C@H](C[C@@H]2O[C@H]2[C@@H](C)[C@H](C)O)[C@@H](O)[C@H]1O [Muporicin]
change of MIC / activity (S. aureus USA300 LAC; MRSA in MHB): fourfold
Antimicrobial activity (MIC) (S. aureus USA300 LAC; MRSA in MHB, 10% serum): 4 µM
Antimicrobial activity (MIC) (S. aureus USA300 LAC; MRSA in MHB, 20% serum): 4 µM
Antimicrobial activity (MIC) (S. aureus USA300 LAC; MRSA in MHB, NaCl (150 mM)): 1 µM
Antimicrobial activity (MIC) (S. aureus USA300 LAC; MRSA in MHB, pH 6.3): 0.5 µM
Antimicrobial activity (MIC) (S. aureus USA300 LAC; MRSA in MHB, pH 7.2): 1 µM
change in MIC with dilution of MHB [1]: essentially no changes

Compound: NC[C@H]1O[C@H](O[C@H]2[C@H](O)[C@@H](O[C@H]3O[C@H](CO)[C@@H](O)[C@H](N)[C@H]3O)[C@H](N)C[C@@H]2N)[C@H](N)C[C@@H]1O [Tobramycin]
MIC (S. aureus USA300 LAC; Staphylococcus aureus, MRSA / USA300, MRSA in MHB, 10% serum, read-out: Antimicrobial activity (MIC)): 2 to 4 µM (≈ 0.935 to 1.87 µg/mL)
MIC (S. aureus USA300 LAC; [3]): 4 µM (≈ 1.87 µg/mL)
MIC (S. aureus USA300 LAC; [4]): 2 µM (≈ 0.935 µg/mL)
change in MIC with dilution of MHB [1]: essentially no changes

Antimicrobial activity (MIC) (S. aureus USA300 LAC; MHB 12.5%): active
Antimicrobial activity (MIC) (S. aureus USA300 LAC; MHB 100%): active
Antimicrobial activity (MIC) (E. coli E423-17; MHB 12.5%): active
Antimicrobial activity (MIC) (E. coli E423-17; MHB 100%): active
Compound: FKRIVQRIKDFLRNLV [FK-16, reference compound]

Compound: GGLKKLGKKLEGAGKRVFKASEKALPVVVGIKAIGK (listed as Aedes aegypti) [Aedesin]
MIC against E. coli (E. coli): 2 to 4 µg/mL

Compound: GIWSSIKNLASKAWNSDIGQSLRNKAAGAINKFVADKIGVTPSQAAS (vaejovis mexicanus) [Vejovine]
MIC against E. coli (E. coli): 4.4 to 20 µM

Compound: GVFDIIKGAGKQLIARAMGKIAEKVGLNKDGN (listed as Leptodactylus pustulatus) [Ocellatin-PT8]
MIC against E. coli (E. coli): 60 µM

Compound: GWLKKIGKKIERVGQHTRDATIQGLGIAQQAANVAATAR (Drosophila melanogaster) [Sarcotoxin IA]
MIC against E. coli (E. coli): 0.2 to 6.3 µg/mL

MIC (S. aureus USA300 LAC; [5]): >64 µM
Antimicrobial activity (MIC) (E. coli E423-17; E423-17): >64 µM
Compound: KEKIGKEFKR-NH2 (C-terminus assumed) [KE-10]

Antimicrobial activity (MIC) (S. aureus USA300 LAC; MHB 12.5%): > 64 µM
Activity (MIC) S. aureus (S. aureus USA300 LAC; USA300): >32 µM
MIC (S. aureus USA300 LAC; [5]): >64 µM
Activity (MIC) E.coli (E. coli E423-17; E423-17): >32 µM
Antimicrobial activity (MIC) (E. coli E423-17; E423-17): >64 µM
Antimicrobial activity (MIC) (E. coli E423-17; MHB 12.5%): 8 µM
Activity (MIC) K. pneumoniae (K. pneumoniae E406-17): >32 µM
Activity (MIC) A. baumannii (A. baumannii B28-16): >32 µM
Activity (MIC) P. aeruginosa (P. aeruginosa E411-17; E411-17): >32 µM
Compound: KRIVQRIK-NH2 [W538]
